Eleven molecules from ChEMBL document CHEMBL1909046, “DrugMatrix in vitro pharmacology data” can be followed below.

Usually IC50 stands for the concentration at which inhibition is half-maximal. What is called Ki is the dissociation constant of the complex between target and ligand, obtained from inhibition or displacement.

Data set [1] is described as follows: DRUGMATRIX: Atrial Natriuretic Factor (ANF) radioligand binding (ligand: [125I] ANF (rat)). The data set is classed as cell membranes, Cavia porcellus, Dunkin-Hartley, Adrenal gland, Membrane. To be noted: Not Active = under 50% inhibition at 10 µM.
A further data set addresses T1, Substance-K receptor (Homo sapiens, UniProt P21452).
T1 sequence (P21452 whole entry): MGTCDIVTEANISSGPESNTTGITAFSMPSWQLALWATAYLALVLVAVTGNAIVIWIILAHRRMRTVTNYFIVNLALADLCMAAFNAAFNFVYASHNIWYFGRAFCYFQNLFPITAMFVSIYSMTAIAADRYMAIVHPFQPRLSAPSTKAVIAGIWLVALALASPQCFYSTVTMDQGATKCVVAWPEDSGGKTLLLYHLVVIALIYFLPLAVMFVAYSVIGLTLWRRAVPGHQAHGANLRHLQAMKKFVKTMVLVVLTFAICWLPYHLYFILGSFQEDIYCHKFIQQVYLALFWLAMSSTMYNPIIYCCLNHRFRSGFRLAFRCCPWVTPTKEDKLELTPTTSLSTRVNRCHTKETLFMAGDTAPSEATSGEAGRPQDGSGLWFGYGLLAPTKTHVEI
In kind it is cell membranes, CHO, Membrane.

For another data set, the target named is Cytochrome P450 2C9 (Homo sapiens, UniProt P11712). To be noted: bti-tn-5b1-4. Note: in other assays of this panel Not Active means under 50% inhibition at 10 µM.
Sequence of Cytochrome P450 2C9 (P11712 whole entry): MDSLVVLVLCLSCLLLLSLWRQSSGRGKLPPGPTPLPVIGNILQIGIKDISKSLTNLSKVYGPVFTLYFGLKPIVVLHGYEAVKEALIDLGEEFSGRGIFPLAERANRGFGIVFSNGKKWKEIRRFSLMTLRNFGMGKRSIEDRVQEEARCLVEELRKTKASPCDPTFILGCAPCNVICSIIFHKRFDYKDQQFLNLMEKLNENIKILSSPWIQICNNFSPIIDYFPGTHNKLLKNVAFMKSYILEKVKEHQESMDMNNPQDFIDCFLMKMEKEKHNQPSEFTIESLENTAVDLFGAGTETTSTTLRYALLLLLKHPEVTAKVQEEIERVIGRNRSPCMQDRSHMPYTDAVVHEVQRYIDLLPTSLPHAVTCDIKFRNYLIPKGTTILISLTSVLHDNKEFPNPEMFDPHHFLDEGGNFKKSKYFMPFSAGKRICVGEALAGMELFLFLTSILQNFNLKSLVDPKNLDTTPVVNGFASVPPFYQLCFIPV
Data set [2] deals with T2, Alpha-1B adrenergic receptor (Rattus norvegicus, UniProt P15823).
T2 sequence (P15823 whole entry): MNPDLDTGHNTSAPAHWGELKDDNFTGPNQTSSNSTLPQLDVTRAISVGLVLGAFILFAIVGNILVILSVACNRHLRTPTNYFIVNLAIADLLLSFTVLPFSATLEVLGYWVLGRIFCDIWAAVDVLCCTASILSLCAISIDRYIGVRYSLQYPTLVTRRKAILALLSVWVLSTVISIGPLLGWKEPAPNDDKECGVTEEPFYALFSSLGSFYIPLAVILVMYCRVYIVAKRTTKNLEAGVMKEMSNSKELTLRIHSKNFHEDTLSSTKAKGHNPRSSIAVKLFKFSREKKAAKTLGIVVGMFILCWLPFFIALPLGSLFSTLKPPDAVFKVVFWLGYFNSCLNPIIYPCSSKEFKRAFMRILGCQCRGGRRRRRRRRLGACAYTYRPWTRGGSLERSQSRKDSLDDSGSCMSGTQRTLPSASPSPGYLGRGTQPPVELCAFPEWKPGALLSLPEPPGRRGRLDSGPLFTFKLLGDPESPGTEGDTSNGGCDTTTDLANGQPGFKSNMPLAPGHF
As to the kind of experiment: DRUGMATRIX: Alpha-1B adrenergic receptor radioligand binding (ligand: prazosin). In kind it is cell membranes, Wistar, Liver, Membrane. To be noted: Not Active = under 50% inhibition at 10 µM.

A further data set has as its target Vasopressin V1a receptor (Homo sapiens, UniProt P37288). The data set is classed as cell membranes, Membrane. To be noted: hek293. Note: in other assays of this panel Not Active means under 50% inhibition at 10 µM.
Data set [3] deals with T3, 5-hydroxytryptamine receptor 1A (Rattus norvegicus, UniProt P19327).
T3 sequence (P19327 whole entry): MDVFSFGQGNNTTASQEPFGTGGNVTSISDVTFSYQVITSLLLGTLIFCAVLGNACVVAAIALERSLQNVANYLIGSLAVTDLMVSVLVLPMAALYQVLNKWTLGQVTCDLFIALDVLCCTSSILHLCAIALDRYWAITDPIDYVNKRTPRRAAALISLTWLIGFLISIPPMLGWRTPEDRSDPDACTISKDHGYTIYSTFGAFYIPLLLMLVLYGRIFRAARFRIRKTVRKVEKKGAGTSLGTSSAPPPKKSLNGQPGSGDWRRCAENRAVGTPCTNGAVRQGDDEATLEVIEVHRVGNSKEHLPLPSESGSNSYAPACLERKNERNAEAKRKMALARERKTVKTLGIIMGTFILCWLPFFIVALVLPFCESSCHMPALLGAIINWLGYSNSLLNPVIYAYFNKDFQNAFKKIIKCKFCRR
The data set is classed as cell membranes, CHO-K1, Membrane.

Sequence of Vasopressin V1a receptor (P37288 whole entry): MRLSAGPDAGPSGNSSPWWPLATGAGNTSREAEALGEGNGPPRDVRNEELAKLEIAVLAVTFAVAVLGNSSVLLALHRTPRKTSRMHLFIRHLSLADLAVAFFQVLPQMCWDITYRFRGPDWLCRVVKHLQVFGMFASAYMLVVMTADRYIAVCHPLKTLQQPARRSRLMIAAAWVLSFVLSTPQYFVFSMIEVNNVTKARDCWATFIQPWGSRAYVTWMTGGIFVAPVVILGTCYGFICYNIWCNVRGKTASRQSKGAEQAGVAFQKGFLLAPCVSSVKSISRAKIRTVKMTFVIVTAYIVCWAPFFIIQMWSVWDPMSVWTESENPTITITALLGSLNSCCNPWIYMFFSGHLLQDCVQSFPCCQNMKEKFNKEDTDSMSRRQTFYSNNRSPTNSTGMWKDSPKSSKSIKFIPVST

`[N-]=[N+]=CC(=O)OC[C@H](N)C(=O)O` [AZASERINE]: the IC50 result (in data set [1]; against Substance-K receptor (cho); against Cytochrome P450 2C9; in data set [2]; on Vasopressin V1a receptor; in data set [3] (cho-k1)) was “Not Active” throughout. The Ki result (in data set [1]; at Cytochrome P450 2C9) was “Not Active” throughout.

In the case of `CC[C@H]1OC(=O)[C@H](C)[C@@H](O[C@H]2C[C@@](C)(OC)[C@@H](O)[C@H](C)O2)[C@H](C)[C@@H](O[C@@H]2O[C@H](C)C[C@H](N(C)C)[C@H]2O)[C@](C)(O)C[C@@H](C)CN(C)[C@H](C)[C@@H](O)[C@]1(C)O` [AZITHROMYCIN], the IC50 result (in data set [1]; against Substance-K receptor (cho); against Cytochrome P450 2C9; in data set [2]; at Vasopressin V1a receptor; in data set [3] (cho-k1)) was “Not Active” throughout. The Ki entry (in data set [1]; on Cytochrome P450 2C9) was “Not Active” each time.

Take `O=c1cc(-c2ccccc2)oc2ccc3ccccc3c12` [BETA-NAPHTHOFLAVONE]: the IC50 entry (in data set [1]; against Substance-K receptor (cho); against Cytochrome P450 2C9; in data set [2]; on Vasopressin V1a receptor; in data set [3] (cho-k1)) was “Not Active” in each case. Moreover, the Ki entry (in data set [1]; on Cytochrome P450 2C9) was “Not Active” each time.

On to `CS(=O)(=O)OCCCCOS(C)(=O)=O` [BUSULFAN], for which the IC50 entry (in data set [1]; at Substance-K receptor (cho); on Cytochrome P450 2C9; in data set [2]; at Vasopressin V1a receptor; in data set [3] (cho-k1)) was “Not Active” each time. The inhibition constant (Ki) result (in data set [1]; on Cytochrome P450 2C9) was “Not Active” each time.

For `CCC[C@@H]1C[C@@H](C(=O)N[C@@H]([C@H]2O[C@H](SC)[C@H](O)[C@@H](O)[C@H]2O)[C@H](C)Cl)N(C)C1` [CLINDAMYCIN], the half-inhibitory concentration (IC50) entry (in data set [1]; on Substance-K receptor (cho); in data set [2]; against Vasopressin V1a receptor; in data set [3] (cho-k1)) was “Not Active” each time. Also, in data set [1], the Ki result was “Not Active”.

On to `C#C[C@]1(O)CC[C@H]2[C@@H]3CCC4=Cc5oncc5C[C@]4(C)[C@H]3CC[C@@]21C` [DANAZOL], for which the IC50 entry was “Not Active” in data set [1]; 26.6 µM on Substance-K receptor (read-out: IC50); “Not Active” in data set [2]; “Not Active” against Vasopressin V1a receptor; “Not Active” in data set [3] (cho-k1). For the same molecule, the inhibition constant (Ki) entry in data set [1] is “Not Active”; on Substance-K receptor (read-out: Ki), 8.86 µM.

For `COc1ccccc1OCC(O)CO` (configuration not stated) [GUAIFENESIN], the IC50 result (in data set [1]; at Substance-K receptor (cho); in data set [2]; at Vasopressin V1a receptor; in data set [3] (cho-k1)) was “Not Active” in each case. In addition, the inhibition constant Ki result in data set [1] was “Not Active”.

As to `N=C(N)N/N=C/c1c(Cl)cccc1Cl` [GUANABENZ], the half-inhibitory concentration (IC50) result in data set [1] was “Not Active”; at Substance-K receptor (cho) it was “Not Active”; on Cytochrome P450 2C9 it was “Not Active”; at Vasopressin V1a receptor, “Not Active”; in data set [3] (read-out: IC50), 2.07 µM. Also, the inhibitory constant (Ki) entry in data set [1] is “Not Active”; at Cytochrome P450 2C9, “Not Active”; in data set [3] (read-out: Ki) it was 1.18 µM.

`CC(=O)O[C@]1(C(C)=O)CC[C@H]2[C@@H]3C=C(C)C4=CC(=O)CC[C@]4(C)[C@H]3CC[C@@]21C` [MEGESTROL ACETATE]: the IC50 entry (in data set [1]; on Substance-K receptor (cho); in data set [2]; at Vasopressin V1a receptor; in data set [3] (cho-k1)) was “Not Active” each time. Moreover, in data set [1], the inhibition constant Ki entry is “Not Active”.

Regarding `CN(Cc1cnc2nc(N)nc(N)c2n1)c1ccc(C(=O)N[C@@H](CCC(=O)O)C(=O)O)cc1` [METHOTREXATE], the IC50 result (in data set [1]; against Substance-K receptor (cho); in data set [2]; on Vasopressin V1a receptor; in data set [3] (cho-k1)) was “Not Active” throughout. The inhibition constant Ki result in data set [1] is recorded as “Not Active”.

With `O=C(O)c1cccnc1` [NIACIN], the IC50 entry (in data set [1]; on Substance-K receptor (cho); in data set [2]; on Vasopressin V1a receptor; in data set [3] (cho-k1)) was “Not Active” in each case. In data set [1], the inhibition constant Ki entry is “Not Active”.
